Consider 3 compounds from patent publication US11492347B2 (ENYO PHARMA, priority 2018, dated 2022).

Assay [1] deals with T1, CISD1 Gene Product (mitoNEET) (Homo sapiens, UniProt Q9NZ45).
T1 sequence (Q9NZ45 33-108 limits assumed): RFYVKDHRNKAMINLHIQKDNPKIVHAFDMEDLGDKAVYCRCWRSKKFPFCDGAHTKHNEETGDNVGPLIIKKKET
Nature of the assay: Stability of Fe-S cluster binding of purified NEET protein (absorbance 458 nm). It is filed as biochemical. The conditions noted are these: for Time (in minutes) to achieve 50% loss of bound cluster (Absorbance 458 nm) / Residual cluster bound at end of experiment (Percentage Absorbance 458 nm at time zero): mitoNEET 20 μM, compound 60 μM; for Time (in minutes) to achieve 50% loss of bound cluster (Absorbance 458 nm): pH 6, 37° C., run time 180 minutes, vehicle control 80; for Residual cluster bound at end of experiment (Percentage Absorbance 458 nm at time zero): pH 6, at 180 minutes, vehicle control 16%. Summed up: (§1)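 Purified NEET protein (20 μM) with compound (60 μM, 1:3 molar ratio) in 100 mM Bis-Tris pH 6, 100 mM NaCl, 66 μM DMSO at 37 °C; 458 nm absorbance decay read every 5 min for 500 min (NAF-1) or 180 min (mitoNEET, Miner2). Outputs: time to 50% absorbance loss and residual % bound cluster, versus protein alone.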

Assay [2] deals with T2, CISD2 Gene Product (NAF-1) (Homo sapiens, UniProt Q8N5K1).
T2 sequence (Q8N5K1 57-135 limits assumed): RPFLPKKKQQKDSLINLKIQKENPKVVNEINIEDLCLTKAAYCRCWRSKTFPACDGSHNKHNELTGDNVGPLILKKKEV
Described as above. It is filed as biochemical. The conditions noted are these: NAF-1 20 μM, compound 60 μM; for Time (in minutes) to achieve 50% loss of bound cluster (Absorbance 458 nm): pH 6, 37° C., run time 500 minutes, vehicle control 310 or 210; for Residual cluster bound at end of experiment (Percentage Absorbance 458 nm at time zero): pH 6, at 500 minutes, vehicle control 3%. Summed up: as §1

`CC1(C)CCc2sc(NC(=O)c3ccccc3)c(C(=O)O)c21` [Compound #37, 2-Benzamido-4,4-dimethyl-5,6-dihydrocyclopenta[b]thiophene-3-carboxylic acid]: in assay [1], the “Time (in minutes) to achieve 50% loss of bound cluster (Absorbance 458 nm)” value was 85 (80) minutes and the “Residual cluster bound at end of experiment (Percentage Absorbance 458 nm at time zero)” value is reported as 23% (16%). Further, in assay [2], the “Time (in minutes) to achieve 50% loss of bound cluster (Absorbance 458 nm)” value is reported as 280 (210) minutes and the “Residual cluster bound at end of experiment (Percentage Absorbance 458 nm at time zero)” value is given as 3% (3%).

Turning to `CC1(C)Cc2c(sc(NC(=O)c3ccc(N4CCOCC4)cc3)c2C(=O)O)C(C)(C)C1` [Compound #36, 5,5,7,7-Tetramethyl-2-[(4-morpholinobenzoyl)amino]-4,6-dihydrobenzothiophene-3-carboxylic acid], in assay [1], the “Time (in minutes) to achieve 50% loss of bound cluster (Absorbance 458 nm)” value is reported as 98 (80) minutes and the “Residual cluster bound at end of experiment (Percentage Absorbance 458 nm at time zero)” value is reported as 36 % (16%). In assay [2], the “Time (in minutes) to achieve 50% loss of bound cluster (Absorbance 458 nm)” value is listed as 210 (210) minutes and the “Residual cluster bound at end of experiment (Percentage Absorbance 458 nm at time zero)” value is given as 30% (3%).

As to `COC1CN(c2ccc(C(=O)Nc3sc4c(c3C(=O)O)CC(C)(C)CC4(C)C)cc2)C1` [Compound #58, 2-[[4-(3-Methoxyazetidin-1-yl)benzoyl]amino]-5,5,7,7-tetramethyl-4,6-dihydrobenzothiophene-3-carboxylic acid], in assay [1], the “Time (in minutes) to achieve 50% loss of bound cluster (Absorbance 458 nm)” value was 100 (80) minutes and the “Residual cluster bound at end of experiment (Percentage Absorbance 458 nm at time zero)” value is 36% (16%). For the same compound, the “Stabiliser or destabiliser of Fe-S cluster binding by CISD1 Gene Product (mitoNEET)” value in assay [1] (time to 50% cluster loss changed by more than 25% compared to the Control sample, at the concentrations tested) is on record as “stabilisers”. In addition, in assay [2], the “Time (in minutes) to achieve 50% loss of bound cluster (Absorbance 458 nm)” value is 280 (310) minutes and the “Residual cluster bound at end of experiment (Percentage Absorbance 458 nm at time zero)” value is 39% (3%).
